Here are results for 28 compounds from US8138168B1 (Takeda Pharmaceutical Company Limited, priority 2007, dated 2012).

This assay addresses T1, Recombinant human renin (Homo sapiens, UniProt P00797).
T1 construct: isolate the active form (residues 67-406); made in house; host or cells: FreeStyle 293-F cells (transient expression of pcDNA3.1(+)/hREN)
T1 sequence (P00797 67-406): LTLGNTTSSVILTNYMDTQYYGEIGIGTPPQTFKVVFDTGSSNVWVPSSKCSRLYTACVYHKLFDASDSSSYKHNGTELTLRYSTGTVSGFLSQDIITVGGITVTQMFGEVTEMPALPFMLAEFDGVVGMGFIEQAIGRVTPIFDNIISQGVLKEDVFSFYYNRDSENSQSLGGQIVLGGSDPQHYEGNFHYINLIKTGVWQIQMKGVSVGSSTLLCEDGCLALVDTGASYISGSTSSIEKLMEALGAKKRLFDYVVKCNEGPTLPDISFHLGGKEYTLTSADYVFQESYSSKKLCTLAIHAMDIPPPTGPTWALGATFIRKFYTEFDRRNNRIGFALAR
Description: In vitro enzymatic activity assay of renin inhibitors (fluorogenic peptide substrate). It counts as biochemical. Particulars: read-out: IC50 of Exemplified Compounds Against Renin. The method, boiled down:
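Recombinant human renin (3 nM final) pre-incubated 10 min at 37 °C with compounds in pH 7.4 Hepes/EDTA/DTT/0.1 mg/mL BSA/Brij35 buffer (optionally plus 2% BSA), 5% DMSO final; fluorogenic QXL520/HiLyteFluo488 peptide substrate added.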

One may read the IC50 as the concentration needed to halve the response being measured. Take `COCCCn1c(C2CCCN(C(=O)C[C@H](N)Cc3ccc4ccccc4c3)C2)nc2ccc(C(=O)OC)cc21` (stereo partly drawn) [Compound 111, methyl 2-(1-((R)-3-amino-4-(naphthalen-2-yl)butanoyl)piperidin-3-yl)-1-(3-methoxypropyl)-1H-benzo[d]imidazole-6-carboxylate]: the IC50 was 100 to 1000 nM.

On to `COCCCn1c([C@H]2CCCN(C(=O)C[C@@H](N)Cc3ccc(Cl)cc3)C2)nc2ccccc21` [Compound 70, (S)-3-amino-4-(4-chlorophenyl)-1-((S)-3-(1-(3-methoxypropyl)-1H-benzo[d]imidazol-2-yl)piperidin-1-yl)butan-1-one], for which the IC50 is above 1000 nM.

Regarding `COCCCn1c([C@@H]2CCCN(C(=O)C[C@H](N)Cc3ccc(-c4ccc5[nH]ncc5c4)cc3)C2)nc2c(C)cccc21` [Compound 499, (R)-4-(4-(1H-indazol-5-yl)phenyl)-3-amino-1-((R)-3-(1-(3-methoxypropyl)-4-methyl-1H-benzo[d]imidazol-2-yl)piperidin-1-yl)butan-1-one], the half-inhibitory concentration (IC50) was below 100 nM.

For the compound `COCCCn1c([C@@H]2CCCN(C(=O)[C@@H]3CN(C(=O)C4CCCC4)C[C@H]3N)C2)nc2ccccc21` [Compound 395, ((3R,4S)-4-amino-1-(cyclopentanecarbonyl)pyrrolidin-3-yl)((R)-3-(1-(3-methoxypropyl)-1H-benzo[d]imidazol-2-yl)piperidin-1-yl)methanone], the IC50 was above 1000 nM.

In the case of `COCCCn1c([C@@H]2CCCN(C(=O)C[C@H](N)Cc3ccc4ccccc4c3)C2)nc2ccc(C(C)C)cc21` [Compound 116, (R)-3-amino-1-((R)-3-(6-isopropyl-1-(3-methoxypropyl)-1H-benzo[d]imidazol-2-yl)piperidin-1-yl)-4-(naphthalen-2-yl)butan-1-one], the concentration for half-maximal inhibition (IC50) fell in the range of 100 to 1000 nM.

Take `COCCCn1c([C@@H]2CCCN(C(=O)[C@@H]3CN(S(=O)(=O)c4ccc5ccccc5c4)C[C@H]3N)C2)nc2ccccc21` [Compound 341, ((3R,4S)-4-amino-1-(naphthalen-2-ylsulfonyl)pyrrolidin-3-yl)((R)-3-(1-(3-methoxypropyl)-1H-benzo[d]imidazol-2-yl)piperidin-1-yl)methanone]: the IC50 fell in the range of 100 to 1000 nM.

`COCCCn1c([C@@H]2CCCN(C(=O)C[C@H](N)Cc3ccc4ccccc4c3)C2)nc2ccc(C#N)cc21` [Compound 109, 2-((R)-1-((R)-3-amino-4-(naphthalen-2-yl)butanoyl)piperidin-3-yl)-1-(3-methoxypropyl)-1H-benzo[d]imidazole-6-carbonitrite]: the half-maximal inhibitory concentration (IC50) fell in the range of 100 to 1000 nM.

With `CC(=O)NCCn1c([C@@H]2CCCN(C(=O)C[C@H](N)Cc3ccc(-c4ccc(N)nc4)cc3)C2)nc2c(Cl)cccc21` [Compound 479, N-(2-(2-((R)-1-((R)-3-amino-4-(4-(6-aminopyridin-3-yl)phenyl)butanoyl)piperidin-3-yl)-4-chloro-1H-benzo[d]imidazol-1-yl)ethyl)acetamide], the IC50 is below 100 nM.

For the compound `CC(=O)NCCn1c([C@@H]2CCCN(C(=O)C[C@H](N)Cc3ccc(-c4ccc5c(c4)SCC(=O)O5)cc3)C2)nc2ccccc21` [Compound 464, N-(2-(2-((R)-1-((R)-3-amino-4-(4-(2-oxo-2,3-dihydrobenzo[b][1,4]oxathiin-6-yl)phenyl)butanoyl)piperidin-3-yl)-1H-benzo[d]imidazol-1-yl)ethyl)acetamide], the IC50 was below 100 nM.

Take `N[C@@H](CC(=O)N1CCCC(c2nc3ccccc3[nH]2)C1)c1ccc(Cl)cc1Cl` (stereo partly drawn) [Compound 35, (3S)-1-(3-(1H-benzo[d]imidazol-2-yl)piperidin-1-yl)-3-amino-3-(2,4-dichlorophenyl)propan-1-one]: the IC50 is above 1000 nM.

Consider `COCCCn1c([C@@H]2CCCN(C(=O)C[C@H](N)Cc3ccc(-c4ccc(C(=O)N[C@@H](C)CO)cc4)cc3)C2)nc2ccccc21` [Compound 187, 4′-((R)-2-amino-4-((R)-3-(1-(3-methoxypropyl)-1H-benzo[d]imidazol-2-yl)piperidin-1-yl)-4-oxobutyl)-N-((S)-1-hydroxypropan-2-yl)biphenyl-4-carboxamide], for which the IC50 was below 100 nM.

Regarding `COCCCn1c([C@@H]2CCCN(C(=O)C[C@H](N)Cc3ccc(-c4ccc(C(=O)NCCO)nc4)cc3)C2)nc2ccccc21` [Compound 194, 5-(4-((R)-2-Amino-4-((R)-3-(1-(3-methoxypropyl)-1H-benzo[d]imidazol-2-yl)piperidin-1-yl)-4-oxobutyl)phenyl)-N-(2-hydroxyethyl)picolinamide], the 50% inhibitory concentration (IC50) was below 100 nM.

On to `CC[C@@H](N)C(=O)N1CCCC(c2nc3ccccc3[nH]2)C1` (stereo partly drawn) [Compound 51, (2R)-1-(3-(1H-benzo[d]imidazol-2-yl)piperidin-1-yl)-2-aminobutan-1-one], for which the half-maximal inhibitory concentration (IC50) is above 1000 nM.

For `COCCCn1c([C@@H]2CCCN(C(=O)C[C@H](N)Cc3ccc(-c4ccc(C(=O)NCCO)cc4Cl)cc3)C2)nc2ccccc21` [Compound 192, 4′-((R)-2-amino-4-((R)-3-(1-(3-methoxypropyl)-1H-benzo[d]imidazol-2-yl)piperidin-1-yl)-4-oxobutyl)-2-chloro-N-(2-hydroxyethyl)biphenyl-4-carboxamide], the IC50 is below 100 nM.

`COCCCn1c([C@@H]2CCCN(C(=O)[C@@H]3CN(S(=O)(=O)c4ccc5[nH]c(=O)[nH]c5c4)C[C@H]3N)C2)nc2ccccc21` [Compound 338]: the 50% inhibitory concentration (IC50) was below 100 nM.

For the compound `COCCCn1c([C@@H]2CCCN(C(=O)C[C@H](N)Cc3ccc(-c4cccnc4)cc3)C2)nc2ccccc21` [Compound 125, (R)-3-amino-1-((R)-3-(1-(3-methoxypropyl)-1H-benzo[d]imidazol-2-yl)piperidin-1-yl)-4-(4-(pyridin-3-yl)phenyl)butan-1-one], the IC50 was below 100 nM.

For the compound `COCCCn1c([C@@H]2CCCN(C(=O)C[C@H](N)CNC(=O)Nc3ccccc3SC)C2)nc2ccccc21` [Compound 284, 1-((S)-2-amino-4-((R)-3-(1-(3-methoxypropyl)-1H-benzo[d]imidazol-2-yl)piperidin-1-yl)-4-oxobutyl)-3-(2-(methylthio)phenyl)urea], the IC50 lay in the range of 100 to 1000 nM.

In the case of `COCCCn1c([C@@H]2CCCN(C(=O)C[C@H](N)Cc3ccc(-c4ccnc(Cl)c4)cc3)C2)nc2ccccc21` [Compound 133, (R)-3-amino-4-(4-(2-chloropyridin-4-yl)phenyl)-1-((R)-3-(1-(3-methoxypropyl)-1H-benzo[d]imidazol-2-yl)piperidin-1-yl)butan-1-one], the IC50 is below 100 nM.

In the case of `COCCCn1c([C@@H]2CCCN(C(=O)C[C@H](N)Cc3ccc(-c4cccnc4OC)cc3)C2)nc2ccccc21` [Compound 163, (R)-3-amino-1-((R)-3-(1-(3-methoxypropyl)-1H-benzo[d]imidazol-2-yl)piperidin-1-yl)-4-(4-(2-methoxypyridin-3-yl)phenyl)butan-1-one], the IC50 was below 100 nM.

As for `COCCCn1c([C@@H]2CCCN(C(=O)C[C@H](N)Cc3ccc(-c4ccccc4OC)cc3)C2)nc2ccccc21` [Compound 159], the half-maximal inhibitory concentration (IC50) was below 100 nM.

As to `COCCCn1c([C@@H]2CCCN(C(=O)C[C@H](N)Cc3ccc(-c4ccc(OC)cc4)cc3)C2)nc2c(F)cccc21` [Compound 492, (R)-3-amino-1-((R)-3-(4-fluoro-1-(3-methoxypropyl)-1H-benzo[d]imidazol-2-yl)piperidin-1-yl)-4-(4′-methoxybiphenyl-4-yl)butan-1-one], the half-inhibitory concentration (IC50) was below 100 nM.

For the compound `N[C@@H](CC(=O)N1CCCC(c2nc3ccccc3[nH]2)C1)Cc1ccc(Br)cc1` (stereo partly drawn) [Compound 34, (3R)-1-(3-(1H-benzo[d]imidazol-2-yl)piperidin-1-yl)-3-amino-4-(4-bromophenyl)butan-1-one], the 50% inhibitory concentration (IC50) was above 1000 nM.

In the case of `COCCCn1c([C@@H]2CCCN(C(=O)C[C@H](N)CNS(=O)(=O)c3ccc(OC)cc3)C2)nc2ccccc21` [Compound 321, N-((S)-2-amino-4-((R)-3-(1-(3-methoxypropyl)-1H-benzo[d]imidazol-2-yl)piperidin-1-yl)-4-oxobutyl)-4-methoxybenzenesulfonamide], the 50% inhibitory concentration (IC50) fell in the range of 100 to 1000 nM.

`COCCCc1nc2ccccc2n1[C@@H]1CCCN(C(=O)C[C@H](N)Cc2ccc3ccccc3c2)C1` [Compound 243, (R)-3-amino-1-((R)-3-(2-(3-methoxypropyl)-1H-benzo[d]imidazol-1-yl)piperidin-1-yl)-4-(naphthalen-2-yl)butan-1-one]: the half-inhibitory concentration (IC50) was above 1000 nM.

As to `COCCCn1c([C@@H]2CCCN(C(=O)C[C@H](N)c3cnccc3OC)C2)nc2ccccc21` [Compound 120, (S)-3-Amino-1((R)-3-(1-(3-methoxypropyl)-1H-benzo[d]imidazol-2-yl)piperidin-1-yl)-3-(4-methoxypyridin-3-yl)propan-1-one], the half-inhibitory concentration (IC50) was above 1000 nM.

Turning to `COCCCn1c([C@@H]2CCCN(C(=O)C[C@H](N)Cc3ccc(-c4ccc5c(c4)NC(=O)C5)cc3)C2)nc2c(F)cccc21` [Compound 459, 6-(4-((R)-2-amino-4-((R)-3-(4-fluoro-1-(3-methoxypropyl)-1H-benzo[d]imidazol-2-yl)piperidin-l-yl)-4-oxobutyl)phenyl)indolin-2-one], the IC50 is below 100 nM.

With `N[C@H](C(=O)N1CCCC(c2nc3ccccc3[nH]2)C1)C1CCCCC1` (stereo partly drawn) [Compound 61, (2S)-1-(3-(1H-benzo[d]imidazol-2-yl)piperidin-1-yl)-2-amino-2-cyclohexylethanone], the concentration for half-maximal inhibition (IC50) is above 1000 nM.

Turning to `N[C@H](CCc1ccccc1)CC(=O)N1CCCC(c2nc3ccccc3[nH]2)C1` (stereo partly drawn) [Compound 32, (3R)-1-(3-(1H-benzo[d]imidazol-2-yl)piperidin-1-yl)-3-amino-5-phenylpentan-1-one], the half-inhibitory concentration (IC50) was above 1000 nM.
